Patent US20090010976A1, “Cosmetic or dermopharmaceutical compositions containing kombucha” (SEDERMA, priority 2002, published 2009)

System: serum albumin
Test: Anti-glycation effect: serum albumin incubated with fructose, fluorescent 'AGE' (FFI) formation
Format: biochemical
Settings: one week
Description: Principle: The in vitro model consists in serum albumin incubated with fructose at […]. Glycation is monitored through the formation of fluorescent compounds, generally pentosidines or FFI (furoyl-furanyl-imidazoles.
Protocol: Non-enzymatic glycation between serum albumin and fructose is a slow spontaneous reaction that is accelerated by heat.
In our test, serum albumin (at 2%) and fructose (at 100 mM) were incubated in phosphate buffer medium pH 7.4 at 50° C. for one week. […] The reference (Control) glycation value after one week is determined on the serum albumin and fructose incubation medium. The positive control for glycation inhibition is obtained by incubation in the presence of 0.03% aminoguanidine and the test incubations were conducted in the presence of kombucha at various concentrations.
Results: For each fluorescence value determined, the percentage change on the control is calculated. The results shown in the following table are mean values for n=4 replicates.

- % 'AGE' decrease (inhibition of 'AGE' production, FFI compounds) (aminoguanidine 0.03%, serum albumin 2% + fructose 100 mM, pH 7.4, 50° C., mean of n=4): 89 ± 5%
Structure (SMILES): N=C(N)NN [aminoguanidine]
- Inhibition of glycation, result in words (serum albumin + fructose, 50° C.): excellent inhibition of glycation
